From ChEMBL document CHEMBL2040759, “Design, synthesis and anticancer activity of nitric oxide donating/chalcone hybrids” (2012)

Assays:
Assay type in all cases: functional
786-0 = test: Growth inhibition of human 786-0 cells after 48 hrs by SRB assay; settings: 786-0, 48 h
OVCAR-8 [1] = test: Growth inhibition of human OVCAR8 cells after 48 hrs by SRB assay; settings: OVCAR-8, 48 h
CCRF-CEM [2] = test: Growth inhibition of human CCRF-CEM cells after 48 hrs by SRB assay
SW-620 [3] = test: Growth inhibition of human SW620 cells assessed as cell growth at 10^-5 M after 48 hrs by SRB assay; settings: SW-620, 48 h, read-out: Activity
SK-MEL-28 [4] = test: Growth inhibition of human SK-MEL-28 cells after 48 hrs by SRB assay; settings: SK-MEL-28, 48 h
M14 = test: Growth inhibition of human M14 cells assessed as cell growth at 10^-5 M after 48 hrs by SRB assay; settings: M14, 48 h, read-out: Activity
KM12 = test: Growth inhibition of human KM12 cells after 48 hrs by SRB assay; settings: KM12, 48 h
CCRF-CEM [5] = test: Growth inhibition of human CCRF-CEM cells assessed as cell growth at 10^-5 M after 48 hrs by SRB assay; settings: read-out: Activity
OVCAR-8 [6] = test: Growth inhibition of human OVCAR8 cells assessed as cell growth at 10^-5 M after 48 hrs by SRB assay; settings: OVCAR-8, 48 h, read-out: Activity
MCF7 = test: Growth inhibition of human MCF7 cells assessed as cell growth at 10^-5 M after 48 hrs by SRB assay; settings: MCF7, 48 h, read-out: Activity
BT-549 = test: Growth inhibition of human BT549 cells assessed as cell growth at 10^-5 M after 48 hrs by SRB assay; settings: BT-549, 48 h, read-out: Activity
SR = test: Growth inhibition of human SR cells after 48 hrs by SRB assay
[7] = Growth inhibition of human […] cells assessed as cell growth at 10^-5 M after 48 hrs by SRB assay; settings: RPMI18226, 48 h, read-out: Activity
[8] = Growth inhibition of human RPMI18226 cells after 48 hrs by SRB assay; settings: RPMI18226, 48 h
SK-MEL-28 [9] = test: Growth inhibition of human SK-MEL-28 cells assessed as cell growth at 10^-5 M after 48 hrs by SRB assay; settings: SK-MEL-28, 48 h, read-out: Activity
NCI-H23 = test: Growth inhibition of human NCI-H23 cells assessed as cell growth at 10^-5 M after 48 hrs by SRB assay; settings: NCI-H23, 48 h, read-out: Activity
U-251 = test: Growth inhibition of human U251 cells after 48 hrs by SRB assay; settings: U-251, 48 h
SK-OV-3 = test: Growth inhibition of human SKOV3 cells assessed as cell growth at 10^-5 M after 48 hrs by SRB assay; settings: SK-OV-3, 48 h, read-out: Activity
HOP-62 [10] = test: Growth inhibition of human HOP62 cells after 48 hrs by SRB assay; settings: HOP-62, 48 h
SW-620 [11] = test: Growth inhibition of human SW620 cells after 48 hrs by SRB assay; settings: SW-620, 48 h
SF-268 = test: Growth inhibition of human SF268 cells assessed as cell growth at 10^-5 M after 48 hrs by SRB assay; settings: SF-268, 48 h, read-out: Activity
HOP-62 [12] = test: Growth inhibition of human HOP62 cells assessed as cell growth at 10^-5 M after 48 hrs by SRB assay; settings: HOP-62, 48 h, read-out: Activity
NCI-H226 = test: Growth inhibition of human NCI-H226 cells after 48 hrs by SRB assay; settings: NCI-H226, 48 h
COLO 205 = test: Growth inhibition of human COLO205 cells after 48 hrs by SRB assay; settings: COLO 205, 48 h
OVCAR-5 = test: Growth inhibition of human OVCAR5 cells after 48 hrs by SRB assay; settings: OVCAR-5, 48 h
UACC-62 = test: Growth inhibition of human UACC62 cells assessed as cell growth at 10^-5 M after 48 hrs by SRB assay; settings: UACC-62, 48 h, read-out: Activity
NCI-H322M = test: Growth inhibition of human NCI-H322M cells assessed as cell growth at 10^-5 M after 48 hrs by SRB assay; settings: read-out: Activity
A498 = test: Growth inhibition of human A498 cells assessed as cell growth at 10^-5 M after 48 hrs by SRB assay; settings: A498, 48 h, read-out: Activity
TK-10 [13] = test: Growth inhibition of human TK10 cells assessed as cell growth at 10^-5 M after 48 hrs by SRB assay; settings: TK-10, 48 h, read-out: Activity
TK-10 [14] = test: Growth inhibition of human TK10 cells after 48 hrs by SRB assay; settings: TK-10, 48 h
MOLT-4 = test: Growth inhibition of human MOLT4 cells after 48 hrs by SRB assay; settings: MOLT-4, 48 h
HCT-15 = test: Growth inhibition of human HCT15 cells assessed as cell growth at 10^-5 M after 48 hrs by SRB assay; settings: HCT-15, 48 h, read-out: Activity
RXF 393 = test: Growth inhibition of human RXF393 cells assessed as cell growth at 10^-5 M after 48 hrs by SRB assay; settings: RXF 393, 48 h, read-out: Activity
[15] = Growth inhibition of human NCI-ADR-RES cells assessed as cell growth at 10^-5 M after 48 hrs by SRB assay; settings: read-out: Activity
A549 = test: Growth inhibition of human A549/ATCC cells after 48 hrs by SRB assay; settings: A549, 48 h
[16] = read-out: LC50 (the source's name)

With `O=C(CO[N+](=O)[O-])Nc1ccc(C(=O)/C=C/c2ccc(Cl)cc2)cc1` the GI50 (786-0) was 11.6 µM, the TGI (786-0) was 48 µM and the CC50 (786-0; [16]) was > 100 µM. It also gave a GI50 (OVCAR-8 [1]) of 3.24 µM, a TGI (OVCAR-8 [1]) of 14 µM and a CC50 (OVCAR-8 [1]; [16]) of 63 µM. The GI50 (CCRF-CEM [2]) was 2.73 µM, the TGI (CCRF-CEM [2]) was 16.5 µM and the CC50 (CCRF-CEM [2]; [16]) was > 100 µM. It also gave a growth at 10 µM (SW-620 [3]) of -61.8%, a GI50 (SK-MEL-28 [4]) of 4.96 µM and a TGI (SK-MEL-28 [4]) of 18.1 µM. The CC50 (SK-MEL-28 [4]; [16]) was 49.5 µM, the growth at 10 µM (M14) was 3.46% and the GI50 (KM12) was 1.54 µM. The TGI (KM12) was 3.1 µM, the CC50 (KM12; [16]) was 6.23 µM and the growth at 10 µM (CCRF-CEM [5]) was 20.1%. The growth at 10 µM (OVCAR-8 [6]) was 27.2%, the growth at 10 µM (MCF7) was 1.64% and the growth at 10 µM (BT-549) was 18.9%. For the same compound, the GI50 (SR) was 3.64 µM, the TGI (SR) was > 100 µM and the CC50 (SR; [16]) was > 100 µM. The growth at 10 µM [7] was -14.2%, the GI50 [8] was 1.41 µM and the TGI [8] was 8.36 µM. The CC50 [8, 16] was > 100 µM, the growth at 10 µM (SK-MEL-28 [9]) was 86.8% and the growth at 10 µM (NCI-H23) was 5.49%. For the same compound, the GI50 (U-251) was 1.48 µM, the TGI (U-251) was 3.15 µM and the CC50 (U-251; [16]) was 6.68 µM. It also gave a growth at 10 µM (SK-OV-3) of 89.3%, a GI50 (HOP-62 [10]) of 3.11 µM and a TGI (HOP-62 [10]) of 9.73 µM. It also gave a CC50 (HOP-62 [10]; [16]) of 34.6 µM, a GI50 (SW-620 [11]) of 1.44 µM and a TGI (SW-620 [11]) of 2.88 µM. For the same compound, the CC50 (SW-620 [11]; [16]) was 5.77 µM, the growth at 10 µM (SF-268) was 44.9% and the growth at 10 µM (HOP-62 [12]) was 94.1%. The GI50 (NCI-H226) was 5.15 µM, the TGI (NCI-H226) was 29 µM and the CC50 (NCI-H226; [16]) was > 100 µM. It also gave a GI50 (COLO 205) of 2.57 µM, a TGI (COLO 205) of 6.09 µM and a CC50 (COLO 205; [16]) of 21.1 µM. For the same compound, the GI50 (OVCAR-5) was 14.8 µM, the TGI (OVCAR-5) was 36 µM and the CC50 (OVCAR-5; [16]) was 87.8 µM. The growth at 10 µM (UACC-62) was 49.2%, the growth at 10 µM (NCI-H322M) was 71.5% and the growth at 10 µM (A498) was 103%. The growth at 10 µM (TK-10 [13]) was 45.7%, the GI50 (TK-10 [14]) was 8.37 µM and the TGI (TK-10 [14]) was 25.1 µM. For the same compound, the CC50 (TK-10 [14]; [16]) was 68.2 µM, the GI50 (MOLT-4) was 4.68 µM and the TGI (MOLT-4) was 69.4 µM. For the same compound, the CC50 (MOLT-4; [16]) was > 100 µM, the growth at 10 µM (HCT-15) was 58.9% and the growth at 10 µM (RXF 393) was 72.5%. It also gave a growth at 10 µM [15] of 29.9%, a GI50 (A549) of 5.71 µM and a TGI (A549) of 20.6 µM. It also gave a CC50 (A549; [16]) of 57.9 µM.
`O=C(CO[N+](=O)[O-])Nc1ccc(C(=O)/C=C/c2ccc3c(c2)OCO3)cc1` gave a growth at 10 µM (SW-620 [3]) of 47.8%, a growth at 10 µM (M14) of 81.8% and a growth at 10 µM (CCRF-CEM [5]) of 70%. For the same compound, the growth at 10 µM (OVCAR-8 [6]) was 75.8%, the growth at 10 µM (MCF7) was 26.2% and the growth at 10 µM (BT-549) was 87.6%. It also gave a growth at 10 µM [7] of 46.8%, a growth at 10 µM (SK-MEL-28 [9]) of 104% and a growth at 10 µM (NCI-H23) of 58.1%. It also gave a growth at 10 µM (SK-OV-3) of 111%, a growth at 10 µM (SF-268) of 82.4% and a growth at 10 µM (HOP-62 [12]) of 112%. For the same compound, the growth at 10 µM (UACC-62) was 96%, the growth at 10 µM (NCI-H322M) was 108% and the growth at 10 µM (A498) was 107%. For the same compound, the growth at 10 µM (TK-10 [13]) was 111%, the growth at 10 µM (HCT-15) was 76.7% and the growth at 10 µM (RXF 393) was 107%. For the same compound, the growth at 10 µM [15] was 84.5%.
